Measured values reported in ChEMBL document CHEMBL5512645, “A novel antimicrobial peptide with broad-spectrum and exceptional stability derived from the natural peptide Brevicidine” (Eur J Med Chem, 2024).
≈ marks a conversion by molar mass, not a printed value. Bridge positions count the residues as written; N and C are the ends. Square brackets hold non-standard residues; d marks the D form. Peptide text beside a SMILES is read from it. * marks the point of attachment. Lauroyl = CCCCCCCCCCCC(=O)*; Decanoyl = CCCCCCCCCC(=O)*; dOrn = NCCC[C@@H](N)C(=O)O; Octanoyl = CCCCCCCC(=O)*; Orn = NCCC[C@H](N)C(=O)O

Experiments:
[1] = test system: Acinetobacter baumannii; experiment: Antibacterial activity against Acinetobacter baumannii ATCC 19606 incubated for 18 to 24 hrs by broth microdilution method; assay type: functional; settings: time 18-24 hrs
[2] = test system: Erythrocyte; experiment: Hemolytic activity in mouse red blood cell assessed as hemolysis incubated for 1 hr; assay type: toxicity, cell-based
[3] = test system: Klebsiella pneumoniae; experiment: Antibacterial activity against Klebsiella pneumoniae ATCC 700603 incubated for 18 to 24 hrs by broth microdilution method; assay type: functional; settings: time 18-24 hrs
[4] = test system: Pseudomonas aeruginosa; experiment: Antibacterial activity against Pseudomonas aeruginosa ATCC 27853 incubated for 18 to 24 hrs by broth microdilution method; assay type: functional; settings: time 18-24 hrs
[5] = test system: Bacillus subtilis; experiment: Antibacterial activity against Bacillus subtilis ATCC 23857 incubated for 18 to 24 hrs by broth microdilution method; assay type: functional; settings: time 18-24 hrs
[6] = test system: Escherichia coli; experiment: Antibacterial activity against Escherichia coli ATCC 25922 incubated for 18 to 24 hrs by broth microdilution method; assay type: functional; settings: time 18-24 hrs
[7] = test system: Staphylococcus aureus; experiment: Antibacterial activity against Staphylococcus aureus ATCC 25923 incubated for 18 to 24 hrs by broth microdilution method; assay type: functional; settings: time 18-24 hrs
[8] = test system: Enterococcus faecalis; experiment: Antibacterial activity against Enterococcus faecalis ATCC 29212 incubated for 18 to 24 hrs by broth microdilution method; assay type: functional; settings: time 18-24 hrs
[9] = test system: Staphylococcus epidermidis; experiment: Antibacterial activity against Staphylococcus epidermidis ATCC 12228 incubated for 18 to 24 hrs by broth microdilution method; assay type: functional; settings: time 18-24 hrs

SMILES	MIC [1]	MIC [3]	MIC [4]	MIC [5]	MIC [6]	MIC [7]	MIC [8]	MIC [9]	MHC [2]
CCC(C)CCC(=O)N[C@H](CC(N)=O)C(=O)N[C@H](Cc1ccc(O)cc1)C(=O)N[C@H](Cc1c[nH]c2ccccc12)C(=O)N[C@H](CCN)C(=O)N[C@@H](CCN)C(=O)NCC(=O)N[C@H](CCN)C(=O)N[C@@H](Cc1c[nH]c2ccccc12)C(=O)N[C@@H]1C(=O)N[C@@H]([C@@H](C)CC)C(=O)NCC(=O)N[C@@H](CO)C(=O)O[C@@H]1C (stereo partly drawn)	32 µM (≈ 47.3 µg/mL)	8 µM (≈ 11.8 µg/mL)	4 µM (≈ 5.91 µg/mL)	16 µM (≈ 23.6 µg/mL)	4 µM (≈ 5.91 µg/mL)	64 µM (≈ 94.6 µg/mL)	64 µM (≈ 94.6 µg/mL)	8 µM (≈ 11.8 µg/mL)	128 µM
CCCCCCCCCC(=O)N[C@H](CC(N)=O)C(=O)N[C@H](Cc1ccc(O)cc1)C(=O)N[C@H](Cc1c[nH]c2ccccc12)C(=O)N[C@H](CCCN)C(=O)N[C@@H](CCCN)C(=O)NCC(=O)N[C@H](CCCN)C(=O)N[C@@H](Cc1c[nH]c2ccccc12)C(=O)N[C@@H]1C(=O)N[C@@H]([C@@H](C)CC)C(=O)NCC(=O)N[C@@H](CO)C(=O)O[C@@H]1C (Decanoyl-[dN][dY][dW][dOrn][Orn]G[dOrn]WTIGS; ester 9-C)	2 µM (≈ 3.12 µg/mL)	2 µM (≈ 3.12 µg/mL)	2 µM (≈ 3.12 µg/mL)	4 µM (≈ 6.25 µg/mL)	2 µM (≈ 3.12 µg/mL)	16 µM (≈ 25 µg/mL)	32 µM (≈ 50 µg/mL)	4 µM (≈ 6.25 µg/mL)	8 µM
CCCCCCCCCCCC(=O)N[C@H](CC(N)=O)C(=O)N[C@H](Cc1ccc(O)cc1)C(=O)N[C@H](Cc1c[nH]c2ccccc12)C(=O)N[C@H](CCCN)C(=O)N[C@@H](CCCN)C(=O)NCC(=O)N[C@H](CCCN)C(=O)N[C@@H](Cc1c[nH]c2ccccc12)C(=O)N[C@@H]1C(=O)N[C@@H]([C@@H](C)CC)C(=O)NCC(=O)N[C@@H](CO)C(=O)O[C@@H]1C (Lauroyl-[dN][dY][dW][dOrn][Orn]G[dOrn]WTIGS; ester 9-C)	4 µM (≈ 6.36 µg/mL)	8 µM (≈ 12.7 µg/mL)	2 µM (≈ 3.18 µg/mL)	4 µM (≈ 6.36 µg/mL)	8 µM (≈ 12.7 µg/mL)	16 µM (≈ 25.4 µg/mL)	16 µM (≈ 25.4 µg/mL)	4 µM (≈ 6.36 µg/mL)	4 µM
CCCCCCCC(=O)N[C@H](CC(N)=O)C(=O)N[C@H](Cc1ccc(O)cc1)C(=O)N[C@H](Cc1c[nH]c2ccccc12)C(=O)N[C@H](CCCN)C(=O)N[C@@H](CCCN)C(=O)NCC(=O)N[C@H](CCCN)C(=O)N[C@@H](Cc1c[nH]c2ccccc12)C(=O)N[C@@H]1C(=O)N[C@@H]([C@@H](C)CC)C(=O)NCC(=O)N[C@@H](CO)C(=O)O[C@@H]1C (Octanoyl-[dN][dY][dW][dOrn][Orn]G[dOrn]WTIGS; ester 9-C)	4 µM (≈ 6.14 µg/mL)	4 µM (≈ 6.14 µg/mL)	2 µM (≈ 3.07 µg/mL)	8 µM (≈ 12.3 µg/mL)	2 µM (≈ 3.07 µg/mL)	32 µM (≈ 49.1 µg/mL)	64 µM (≈ 98.2 µg/mL)	16 µM (≈ 24.5 µg/mL)	64 µM
CCC(C)CCC(=O)N[C@H](CC(N)=O)C(=O)N[C@H](Cc1ccc(-c2ccccc2)cc1)C(=O)N[C@H](Cc1c[nH]c2ccccc12)C(=O)N[C@H](CCCN)C(=O)N[C@@H](CCCN)C(=O)NCC(=O)N[C@H](CCCN)C(=O)N[C@@H](Cc1c[nH]c2ccccc12)C(=O)N[C@@H]1C(=O)N[C@@H]([C@@H](C)CC)C(=O)NCC(=O)N[C@@H](CO)C(=O)O[C@@H]1C (mixture of isomers)	8 µM	16 µM	8 µM	8 µM	16 µM	16 µM	32 µM	16 µM	8 µM
CCC(C)CCC(=O)N[C@H](CC(N)=O)C(=O)N[C@H](C)C(=O)N[C@H](Cc1c[nH]c2ccccc12)C(=O)N[C@H](CCCN)C(=O)N[C@@H](CCCN)C(=O)NCC(=O)N[C@H](CCCN)C(=O)N[C@@H](Cc1c[nH]c2ccccc12)C(=O)N[C@@H]1C(=O)N[C@@H]([C@@H](C)CC)C(=O)NCC(=O)N[C@@H](CO)C(=O)O[C@@H]1C (mixture of isomers)	32 µM	32 µM	2 µM	16 µM	16 µM	> 128 µM	> 128 µM	8 µM	128 µM
CCC(C)CCC(=O)N[C@H](CC(N)=O)C(=O)N[C@H](Cc1ccc2ccccc2c1)C(=O)N[C@H](Cc1c[nH]c2ccccc12)C(=O)N[C@H](CCCN)C(=O)N[C@@H](CCCN)C(=O)NCC(=O)N[C@H](CCCN)C(=O)N[C@@H](Cc1c[nH]c2ccccc12)C(=O)N[C@@H]1C(=O)N[C@@H]([C@@H](C)CC)C(=O)NCC(=O)N[C@@H](CO)C(=O)O[C@@H]1C (mixture of isomers)	8 µM	8 µM	4 µM	8 µM	8 µM	32 µM	32 µM	16 µM	8 µM

Now from value to compound, other results behind:

MIC [1]	MIC [3]	MIC [4]	MIC [5]	MIC [6]	MIC [7]	MIC [8]	MIC [9]	SMILES	MHC [2]
8 µM (≈ 12.5 µg/mL)	8 µM (≈ 12.5 µg/mL)	4 µM (≈ 6.25 µg/mL)	32 µM (≈ 50 µg/mL)	4 µM (≈ 6.25 µg/mL)	64 µM (≈ 100 µg/mL)	64 µM (≈ 100 µg/mL)	32 µM (≈ 50 µg/mL)	CCC(C)CCC(=O)N[C@H](CC(N)=O)C(=O)N[C@H](Cc1ccc(O)cc1)C(=O)N[C@H](Cc1c[nH]c2ccccc12)C(=O)N[C@H](CCCCN)C(=O)N[C@@H](CCCCN)C(=O)NCC(=O)N[C@H](CCCCN)C(=O)N[C@@H](Cc1c[nH]c2ccccc12)C(=O)N[C@@H]1C(=O)N[C@@H]([C@@H](C)CC)C(=O)NCC(=O)N[C@@H](CO)C(=O)O[C@@H]1C (stereo partly drawn)	128 µM
16 µM (≈ 25 µg/mL)	16 µM (≈ 25 µg/mL)	8 µM (≈ 12.5 µg/mL)	16 µM (≈ 25 µg/mL)	8 µM (≈ 12.5 µg/mL)	32 µM (≈ 50 µg/mL)	64 µM (≈ 100 µg/mL)	16 µM (≈ 25 µg/mL)	CCCCCCCCCC(=O)N[C@H](CCCN)C(=O)N[C@H](Cc1ccc(O)cc1)C(=O)N[C@H](Cc1c[nH]c2ccccc12)C(=O)N[C@H](CCCN)C(=O)N[C@@H](CCCN)C(=O)NCC(=O)N[C@H](CCCN)C(=O)N[C@@H](Cc1c[nH]c2ccccc12)C(=O)N[C@@H]1C(=O)N[C@@H]([C@@H](C)CC)C(=O)NCC(=O)N[C@@H](CO)C(=O)O[C@@H]1C	128 µM
16 µM (≈ 25.2 µg/mL)	2 µM (≈ 3.15 µg/mL)	1 µM (≈ 1.58 µg/mL)	4 µM (≈ 6.31 µg/mL)	8 µM (≈ 12.6 µg/mL)	32 µM (≈ 50.5 µg/mL)	> 128 µM	16 µM (≈ 25.2 µg/mL)	CCC(C)CCC(=O)N[C@H](CCCN)C(=O)N[C@H](Cc1ccc(O)cc1)C(=O)N[C@H](Cc1c[nH]c2ccccc12)C(=O)N[C@H](CCCN)C(=O)N[C@@H](CCCN)C(=O)N[C@@H](CCCN)C(=O)N[C@H](CCCN)C(=O)N[C@@H](Cc1c[nH]c2ccccc12)C(=O)N[C@@H]1C(=O)N[C@@H]([C@@H](C)CC)C(=O)NCC(=O)N[C@@H](CO)C(=O)O[C@@H]1C (stereo partly drawn)	128 µM
8 µM	8 µM	4 µM	8 µM	8 µM	32 µM	64 µM	16 µM	CCC(C)CCC(=O)N[C@H](CC(N)=O)C(=O)N[C@H](Cc1ccc(C)cc1)C(=O)N[C@H](Cc1c[nH]c2ccccc12)C(=O)N[C@H](CCCN)C(=O)N[C@@H](CCCN)C(=O)NCC(=O)N[C@H](CCCN)C(=O)N[C@@H](Cc1c[nH]c2ccccc12)C(=O)N[C@@H]1C(=O)N[C@@H]([C@@H](C)CC)C(=O)NCC(=O)N[C@@H](CO)C(=O)O[C@@H]1C (mixture of isomers)	32 µM
32 µM	16 µM	4 µM	16 µM	8 µM	128 µM	> 128 µM	64 µM	CCC(C)CCC(=O)N[C@H](CC(N)=O)C(=O)N[C@H](Cc1ccc(N)cc1)C(=O)N[C@H](Cc1c[nH]c2ccccc12)C(=O)N[C@H](CCCN)C(=O)N[C@@H](CCCN)C(=O)NCC(=O)N[C@H](CCCN)C(=O)N[C@@H](Cc1c[nH]c2ccccc12)C(=O)N[C@@H]1C(=O)N[C@@H]([C@@H](C)CC)C(=O)NCC(=O)N[C@@H](CO)C(=O)O[C@@H]1C (mixture of isomers)	128 µM
